Key:
[1] = test system: HCT116 MTAP-deleted cells; experiment: Cell viability assay (CellTiter-Glo, 7 days), HCT116 MTAP-deleted; details: Homo sapiens, HCT-116, 168 h
[2] = test system: SDMA signal (PRMT5 inhibition) in HCT116 MTAP-deleted cells; experiment: Symmetric di-methyl arginine image-based high content screen assay (SDMA assay), HCT116 MTAP-deleted; type: cell-based; details: SDMA assay; for EC50: Homo sapiens, HCT-116, 72 h, 3 days of treatment, cell line not given, taken as HCT116 MTAP-deleted, read-out: EC50 (SDMA assay)
How it was run: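 Read-out: per-cell mean SDMA immunofluorescence (Alexa Fluor 488 secondary), cells segmented by DAPI on a high-content imager. Compound exposure in HCT116 MTAP-deleted cells lasted until fixation on Day 3; overnight 4° C primary anti-SDMA antibody staining.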

[3] = taken as HCT116 WT versus MTAP-deleted
[4] = taken as HCT116 WT vs MTAP-deleted

SMILES	CC50 [1] [nM]	EC50 [2] [nM]	EC50 selectivity (SDMA assay) [2, 3]	EC50 selectivity (SDMA assay) [2, 4]
CN(C(=O)C1CC1)N(Cc1ncc(C(F)(F)F)cc1F)C(=O)c1ccc2nc(N)c3cnn(C)c3c2c1 [Example 274, 4-amino-N′-(cyclopropanecarbonyl)-N-((3-fluoro-5-(trifluoromethyl)pyridin-2-yl)methyl)-N′,1-dimethyl-1H-pyrazolo[4,3-c]quinoline-8-carbohydrazide]	< 100	< 1	243	–
Cn1ncc2c(N)nc3ccc(C(=O)N(Cc4cn5ccccc5n4)N4Cc5ccccc5C4=O)cc3c21 [Example 139, 4-amino-N-(imidazo[1,2-a]pyridin-2-ylmethyl)-1-methyl-N-(1-oxoisoindolin-2-yl)pyrazolo[4,3-c]quinoline-8-carboxamide]	< 100	> 5	20	–
CC(=O)N(C)N(Cc1ccc(F)cc1C#N)C(=O)c1ccc2nc(N)c3cnn(C)c3c2c1 [Example 452, N′-acetyl-4-amino-N-(2-cyano-4-fluorobenzyl)-N′,1-dimethyl-1H-pyrazolo[4,3-c]quinoline-8-carbohydrazide]	< 100	< 1	–	213
Cn1ncc2c(N)nc3ccc(C(=O)N(Cc4ccc(C(F)(F)F)nc4)N4CCCC4=O)cc3c21 [Example 392, 4-amino-1-methyl-N-(2-oxopyrrolidin-1-yl)-N-[[6-(trifluoromethyl)-3-pyridyl]methyl]pyrazolo[4,3-c]quinoline-8-carboxamide]	< 100	1 to 5	285	–
CCC(=O)N(C)N(Cc1cn2cc(F)ccc2n1)C(=O)c1ccc2nc(N)c3cnn(C)c3c2c1 [Example 91, 4-Amino-N-[(6-fluoroimidazo[1,2-a]pyridin-2-yl)methyl]-N′,1-dimethyl-N′-propanoyl-pyrazolo[4,3-c]quinoline-8-carbohydrazide]	< 100	1 to 5	143	–
CN(C(=O)c1ncccn1)N(Cc1ccc(C(F)(F)F)cn1)C(=O)c1ccc2nc(N)c3cnn(C)c3c2c1 [Example 163, 4-amino-N′,1-dimethyl-N′-(pyrimidine-2-carbonyl)-N-((5-(trifluoromethyl)pyridin-2-yl)methyl)-1H-pyrazolo[4,3-c]quinoline-8-carbohydrazide]	< 100	1 to 5	145	–
CN(C(=O)C1CC1)N(Cc1cnc(C(F)(F)F)c(F)c1)C(=O)c1ccc2nc(N)c3cnn(C)c3c2c1 [Example 279, 4-amino-N′-(cyclopropanecarbonyl)-N-((5-fluoro-6-(trifluoromethyl)pyridin-3-yl)methyl)-N′,1-dimethyl-1H-pyrazolo[4,3-c]quinoline-8-carbohydrazide]	100 to 1000	1 to 5	494	–
CC(=O)N(C)N(Cc1cccc2c1nnn2C)C(=O)c1ccc2nc(N)c3cnn(C)c3c2c1 [Example 289, N′-acetyl-4-amino-N′,1-dimethyl-N-((1-methyl-1H-benzo[d][1,2,3]triazol-4-yl)methyl)-1H-pyrazolo[4,3-c]quinoline-8-carbohydrazide]	100 to 1000	1 to 5	155	–
Cn1ncc2c(N)nc3ccc(C(=O)N(Cc4ccc(OC(F)F)cc4)N4CCCOC4=O)cc3c21 [Example 5, 4-amino-N-(4-(difluoromethoxy)benzyl)-1-methyl-N-(2-oxo-1,3-oxazinan-3-yl)-1H-pyrazolo[4,3-c]quinoline-8-carboxamide]	< 100	< 1	266	–
CC(=O)N(C)N(Cc1ccc2ncsc2c1)C(=O)c1ccc2nc(N)c3cnn(C)c3c2c1 [Example 196, N′-acetyl-4-amino-N-(1,3-benzothiazol-6-ylmethyl)-N′,1-dimethyl-pyrazolo[4,3-c]quinoline-8-carbohydrazide]	< 100	1 to 5	137	–
CC(=O)N(C)N(Cc1ccc(C(F)(F)F)cn1)C(=O)c1ccc2nc(N)c3c(c2c1)COC3 [Example 168, N′-acetyl-4-amino-N′-methyl-N-[[5-(trifluoromethyl)-2-pyridyl]methyl]-1,3-dihydrofuro[3,4-c]quinoline-8-carbohydrazide]	< 100	< 1	97	–
CC(=O)N(C)N(Cc1ccc2scnc2c1)C(=O)c1cc2c(cc1F)nc(N)c1cnn(C)c12 [Example 328, N′-acetyl-4-amino-N-(benzo[d]thiazol-5-ylmethyl)-7-fluoro-N′,1-dimethyl-1H-pyrazolo[4,3-c]quinoline-8-carbohydrazide]	< 100	1 to 5	143	–
CC(=O)N(C)N(Cc1ccc(Cl)cc1C#N)C(=O)c1ccc2nc(N)c3cnn(C)c3c2c1 [Example 457, N′-acetyl-4-amino-N-(4-chloro-2-cyanobenzyl)-N′,1-dimethyl-1H-pyrazolo[4,3-c]quinoline-8-carbohydrazide]	< 100	< 1	–	90
CC(=O)N(C)N(Cc1ccc(C(F)(F)F)cc1F)C(=O)c1ccc2nc(N)c3cnn(C)c3c2c1 [Example 39, N′-acetyl-4-amino-N-[[2-fluoro-4-(trifluoromethyl)phenyl]methyl]-N′,1-dimethyl-pyrazolo[4,3-c]quinoline-8-carbohydrazide]	< 100	< 1	25	–
CC(=O)N(C)N(Cc1ccc(C(F)(F)F)cn1)C(=O)c1ccc2nc(N)c3ccccc3c2c1 [Example 68, N′-acetyl-6-amino-N′-methyl-N-[[5-(trifluoromethyl)-2-pyridyl]methyl]phenanthridine-2-carbohydrazide]	100 to 1000	1 to 5	304	–
Cn1ncc2c(N)nc3ccc(C(=O)N(Cc4ccc(C(F)(F)F)cn4)N4CCC(C)(C)C4=O)cc3c21 [Example 43, 4-amino-N-(3,3-dimethyl-2-oxo-pyrrolidin-1-yl)-1-methyl-N-[[5-(trifluoromethyl)-2-pyridyl]methyl]pyrazolo[4,3-c]quinoline-8-carboxamide]	< 100	1 to 5	226	–
CN1CCN(N(Cc2ccc(C(F)(F)F)cn2)C(=O)c2ccc3nc(N)c4cnn(C)c4c3c2)C(=O)C1 [Example 382, 4-amino-1-methyl-N-(4-methyl-2-oxo-piperazin-1-yl)-N-[[5-(trifluoromethyl)-2-pyridyl]methyl]pyrazolo[4,3-c]quinoline-8-carboxamide]	< 100	1 to 5	167	–
CC(=O)N(C)N(Cc1ncc(C(F)(F)F)cc1Cl)C(=O)c1ccc2nc(N)c3cnn(C)c3c2c1 [Example 261, N′-acetyl-4-amino-N-((3-chloro-5-(trifluoromethyl)pyridin-2-yl)methyl)-N′,1-dimethyl-1H-pyrazolo[4,3-c]quinoline-8-carbohydrazide]	< 100	1 to 5	257	–
CCN(C(C)=O)N(Cc1ccc(C(F)(F)F)cn1)C(=O)c1ccc2nc(N)c3cnn(C)c3c2c1 [Example 204, N′-acetyl-4-amino-N′-ethyl-1-methyl-N-[[5-(trifluoromethyl)-2-pyridyl]methyl]pyrazolo[4,3-c]quinoline-8-carbohydrazide]	< 100	1 to 5	150	–

Source: US20240254118A1, “PRMT5 INHIBITORS AND USES THEREOF” (Gilead Sciences, Inc., priority 2022, published 2024)
